# Assay results from patent US8829035B2, “Agent for treatment or prevention of diseases associated with activity of neurotrophic factors” (Sumitomo Chemical Company, Limited, priority 2009, dated 2014).
# Key:
# [1] = tested on: middle cerebral artery occlusion/reperfusion model; test: Middle cerebral artery occlusion/reperfusion model, infarct volume; type: in vivo, C57BL/6J mice; settings: mice, 90 minutes occlusion; 30 mg/kg via the caudate vein at 3, 24 and 48 hours after occlusion; brains taken 3 days after occlusion/reperfusion
# Protocol: A middle cerebral artery occlusion/reperfusion model was prepared by taking 8-week male C57BL/6J mice after 12 days convention rearing, and ligating the left and external common carotid arteries, then recanalizing them after the middle cerebral artery had been occluded for a period of 90 minutes. In this model, the compounds were administered at 3, 24, and 48 hours after occlusion as 30 mg/kg via the caudate vein. The animals were decapitated 3 days after the occlusion/reperfusion, the skulls were cut open from the cerebellar side and the brain was extracted. The extracted brains were fixed with Bouin's solution (pH 3.5-4.0). […] The infarct volumes were then calculated as shown below.
# Optical microscope: digital images were taken using an optical microscope (object lens×1) that was fitted with a camera (MCD-350, Olympus). […] Based on the images pasted into the page mounts, the infarct areas (S, mm^2), lateral (left) infarct areas (mm^2) and lateral (right) non-infarct areas (MR, mm^2) were measured using an image analysis system (Win ROOF v. 5.6, Mitani), and the non-infarct areas for the left-side infarcts (ML, mm^2) [lateral (left) infarct area (mm^2)−infarct area (mm^2)] were calculated.
# Using the equations below, the infarct volumes (SV, mm^3), non-infarct volumes for the left-side infarcts (MLV, mm^3), and the lateral (right) non-infarct volumes (MRV, mm^3) were calculated. […]
# [2] = tested on: rats with streptozotocin-induced diabetes; test: Motor nerve conduction velocity (MNCV) in sciatic nerves of rats with streptozotocin-induced diabetes; type: in vivo, Slc:Wistar rats; settings: 5 mL/kg of 10 mg/mL drug solution orally once per day for 4 weeks, compared to solvent administration control group
# Protocol: The preventative effect of the compounds on the prolongation of latency of the motor nerve conduction velocity (MNCV) were studied in the sciatic nerves of rats with streptozotocin-induced diabetes.
# The groups were structured as a non-diabetes control group, a diabetes control group, and a drug administration group. After 8 days of convention rearing, the 8-week male Slc:Wistar rats in the respective groups were given 2 mL/kg of pH 4.5, 0.75 mmol/L citrate buffer solution (non-diabetes control group), or 2 mL/kg of a solution prepared from […] of streptozotocin (chemical name: N-(methylnitrosocarbamoyl)-α-D-glucosamine; manufacturer: SIGMA) in 0.75 mmol/L citrate buffer solution (diabetes control group and drug administration group), single administration in the caudate vein. After 4 more weeks of rearing, the animals in the non-diabetes control group and the diabetes control group were given 5 mL/kg of water for injection, while the animals in the drug administration group were given 5 mL/kg of a drug solution prepared from 10 mg/mL of the drug in water for injection. Administration for all groups was orally once per day for 4 weeks. MNCV measurements were carried out 3 times for each group. […]
# [3] = tested on: activity of 200 ng/mL of NGF (NXF promoter-driven luciferase in PC12 cells); test: Luciferase reporter assay (NXF promoter) in PC12 cells: potentiation of NGF activity; type: cell-based, rat; parameters: key: +: Showed relatively weak potentiation (potentiation only exhibited at 10 μM); ++: Showed potentiation; +++: Showed particularly strong potentiation (2-fold or greater potentiation of the activity of 200 ng/mL of NGF at 1 μM)
# Protocol: The forward primer 5′-[…]-3′ and the reverse primer 5′-[…]-3′ were prepared as the PCR primers according to the sequence information for the NXF gene genome sequence (Accession Nos. AB054577 and NC—000085), and the PCR method was used to isolate from approximately 5 kbp upstream from the translated region of the NXF gene promoter portion to the vicinity of the transcription start site. For this, 1 μg of mouse genomic DNA (Takara) was used as the template, and the 2-step PCR reaction was carried out for 35 cycles, the conditions for which were 95° C./1 m in the denaturing step, and 68° C./8 m in the annealing and extension steps, to obtain the PCR product. The NXF promoter fragment was inserted into the SmaI site of the pGL3 Basic vector (Promega) in the upstream of luciferase gene to prepare a reporter plasmid that would express the luciferase enzyme driven by the NXF promoter.
# PC12 cells (available from the ATCC) were cultured using RPMI medium (GIBCO-BRL) with 5% FCS (GIBCO-BR) and 15% horse serum (GIBCO-BRL) added, and 1 mM in sodium pyruvate (GIBCO-BRL), at 37° C. in the presence of 5% CO2. After transfection in 10^6 of these PC12 cells for 2 days with 12 μg of the above-described reporter plasmid and 1 μg of pRC/RSV vector (Invitrogen) using the Lipofectamine 2000 reagent (Invitrogen), the medium was exchanged for fresh medium containing 40 mg/L of geneticin sulfate (GIBCO), and this was cultured continuously. Culturing was continued for approximately 1 month with medium exchange of the cultured medium containing 40 mg/L of geneticin sulfate (GIBCO) every several days, with the result that multiple colonies of the obtained cells were picked up. Among these, one of the colonies that induced luciferase activity in the presence of 40 ng/mL of NGF (Wako Pure Chemicals) was selected and used for the cells to evaluate the activity of the compounds below.
# These cells were set up in 96-well plates with 80% confluence, and the luciferase reporter assay was conducted using the Promega Steady Glo luciferase assay kit. The procedure was carried out overnight (approx. 16 hours) using culture medium containing the compound, and the Steady Glo substrate solution was added to the cells in half-diluted in PBS after removal of all remaining medium containing the compound. After this was allowed to stand for 30 minutes, the respective quantity of light produced was measured with a luminometer (Envision Perkin Elmer).
# The activity of the compounds for evaluation was measured as the potentiation of the activity of 200 ng/mL of NGF. For the experiment control wells, the negative control well had medium containing only a final concentration of 0.1% DMSO, the positive control well had medium containing a saturation concentration of NGF. In addition, a test well was set up containing 0.1% DMSO with 200 ng/mL of NGF added corresponding to a 0 compound concentration. When its luciferase activity was taken as a standard, the relative luciferase activity could be calculated for the test wells to which the compound solution (dissolved in DMSO and prepared to have a final DMSO concentration of 0.1%) had been added in addition to the 200 ng/mL of NGF, to find the potentiation of the activity of 200 ng/mL of NGF due to that compound.
# [4] = Test Example 4, same manner as Test Example 1, relative luciferase activity vs 200 ng/mL NGF alone
Compound,"Activity (potentiation of NGF activity) [3, 4]",also measured
"Cc1nc2cc(-c3nc4ccccc4o3)ccc2n1C1CCOCC1 [Ex. 12, 5-(benzoxazol-2-yl)-2-methyl-1-(tetrahydropyran-4-yl)benzimidazole methanesulfonate]",–,infarct volume [1]: reductions in the infarct volumes were confirmed; motor nerve conduction velocity (MNCV) [2]: recovery of motor nerve conduction velocity was observed
"Clc1ccccc1-c1nc2cc(-c3nc4ccccc4o3)ccc2n1C1CCOCC1 [Ex. 126, 5-(benzoxazol-2-yl)-2-(2-chlorophenyl)-1-(tetrahydropyran-4-yl)benzimidazole]",++,–
"CCCNC(=O)c1ccc2oc(-c3ccc4c(c3)nc(C)n4C3CCOCC3)nc2c1 [Ex. 99, 2-methyl-5-(5-n-propylaminocarbonylbenzoxazol-2-yl)-1-(tetrahydropyran-4-yl)benzimidazole]",++,–
"Cc1nc2cc(-c3nc4ccccc4o3)ccc2n1CCc1ccccc1 [Ex. 52, 5-(benzoxazol-2-yl)-2-methyl-1-(2-phenylethyl)benzimidazole]",++,–
Cc1nc2cc(-c3nc4ccccc4o3)ccc2n1CC(=O)N1CCOCC1 [Ex. 107],+,–
"c1ccc2oc(-c3ccc4c(c3)nc(C3CCCO3)n4C3CCOCC3)nc2c1 (stereo not drawn) [Ex. 90, 5-(benzoxazol-2-yl)-2-(tetrahydrofuran-2-yl)-1-(tetrahydropyran-4-yl)benzimidazole]",++,–
"Cc1nc2cc(-c3nc4ccccc4o3)ccc2n1Cc1ccccc1 [Ex. 17, 5-(benzoxazol-2-yl)-1-benzyl-2-methylbenzimidazole]",–,"Activity (potentiation of NGF activity) ([3]; Test Example 1, relative luciferase activity vs 200 ng/mL NGF alone, overnight (approx. 16 hours)): ++"
"Cc1nc2cc(-c3nc4ccccc4o3)ccc2n1CCS(C)(=O)=O [Ex. 132, 5-(benzoxazol-2-yl)-1-(2-(methylsulfonyl)ethyl)-2-methylbenzimidazole]",++,–
